The values below come from patent US20180256596A1, “METHOD AND TOPICAL COMPOSITION FOR THE TREATMENT OF ROSACEA AND SKIN ERYTHEMA USING PYRITHIONE ZINC” (priority 2017, published 2018).

The subject of this experiment is facial Rosacea. The experiment in a line: clinical type observations of topical application to facial skin. Format: in vivo. To be noted: pyrithione zinc aqueous solution of 1% concentration strength as sole active ingredient.

Method: In usage, the fluid composition of the invention is to be administered topically by a vehicle or carrier medium compatible with application to the skin. A useful regimen would be to a) mix 1 part of a 1% concentration strength pyrithione zinc aqueous solution with 3 parts of a cocoa butter emulsion moisturizer cream carrier; b) apply the fluid composition to the facial area of concern; c) leave the fluid composition for 2-3 minutes at the area of application; and d) rinse it off. […] For a more resistant condition of facial Rosacea, the regimen would be essentially the same—but with an increased concentration strength of pyrithione zinc aqueous solution, as by the addition of further pyrithione zinc (or zinc pyrithione) crystals to the aqueous formulation.

On to `[O-]n1ccccc1=S.[O-]n1ccccc1=S.[Zn+2]` [pyrithione zinc, Bis [1-hydroxy-2(1H)-pyridinethionato-O,S] (T-4) zinc], for which the “redness, flushing and inflammation associated with facial Rosacea and skin erythema” value was “significantly reducing the redness, flushing and inflammation”.
